According to PubChem BioAssay AID330 (DTP/NCI, 2004):
Values joined by “and” are separate entries in the source; they are usually repeats but may differ in a detail not shown here. Equal values may be shown once. Toxic doses and inconclusive results are not listed. How the source made its calls: active means survival T/C of 150% or more; inactive means T/C below 125% in these data.

Tested on: P388 leukemia ip, CD2F1 mice, survival T/C
Experiment: NCI In Vivo Anticancer Drug Screen. Data for tumor model P388 Leukemia (intraperitoneal) in CD2F1 (CDF1) mice
Conditions: endpoint: median survival time, higher = longer survival
In short: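 Mice carrying the transplanted tumor received test compound or vehicle. Survival was recorded in each group, and the value is the treated-group measurement divided by that of the vehicle-treated control group.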

[1] = dose: 100.0 mg/kg/injection, schedule: Q01DX009 (ip), vehicle: saline with Tween-80
[2] = dose: 200.0 mg/kg/injection, schedule: Q01DX009 (ip), vehicle: saline with Tween-80
[3] = dose: 50.0 mg/kg/injection, schedule: Q01DX005 (ip), vehicle: Klucel (hydroxypropylcellulose) (HPC)
[4] = dose: 100.0 mg/kg/injection, schedule: Q01DX005 (ip), vehicle: Klucel (hydroxypropylcellulose) (HPC)
[5] = dose: 200.0 mg/kg/injection, schedule: Q01DX005 (ip), vehicle: Klucel (hydroxypropylcellulose) (HPC)
[6] = dose: 50.0 mg/kg/injection, schedule: Q01DX005 (ip), vehicle: saline with Tween-80
[7] = dose: 100.0 mg/kg/injection, schedule: Q01DX005 (ip), vehicle: saline with Tween-80
[8] = dose: 200.0 mg/kg/injection, schedule: Q01DX005 (ip), vehicle: saline with Tween-80

Measured: T/C

CC(=O)CCC(=O)OC(C)(C)CN
inactive: [1] 100 % of control | dose: 100.0 mg/kg/injection, schedule: Q04DX003 (ip), vehicle: saline with Tween-80 100 % of control | [2] 100 % of control | dose: 200.0 mg/kg/injection, schedule: Q04DX003 (ip), vehicle: saline with Tween-80 100 % of control | dose: 400.0 mg/kg/injection, schedule: Q01DX009 (ip), vehicle: saline with Tween-80 104 % of control | dose: 400.0 mg/kg/injection, schedule: Q04DX003 (ip), vehicle: saline with Tween-80 104 % of control

O=[N+]([O-])c1ccc(CSSCc2ccc([N+](=O)[O-])cc2)cc1
inactive: [3] 98 % of control | [4] 100 % of control | [5] 105 % of control

O=C1Cc2csc3nc(=O)cc(n23)N1
inactive: dose: 50.0 mg/kg/injection, schedule: Q01DX005 (ip), vehicle: saline 94 % of control | dose: 100.0 mg/kg/injection, schedule: Q01DX005 (ip), vehicle: saline 97 % of control | dose: 200.0 mg/kg/injection, schedule: Q01DX005 (ip), vehicle: saline 88 % of control

OCC1CCCCC1(O)c1ccccc1 (stereo unspecified)
inactive: dose: 50.0 mg/kg/injection, schedule: Q01DX001 (ip), vehicle: Klucel (hydroxypropylcellulose) (HPC) 90 % of control | dose: 100.0 mg/kg/injection, schedule: Q01DX001 (ip), vehicle: Klucel (hydroxypropylcellulose) (HPC) 90 % of control | dose: 200.0 mg/kg/injection, schedule: Q01DX001 (ip), vehicle: Klucel (hydroxypropylcellulose) (HPC) 90 % of control

COc1ccc(S(=O)(=O)N/N=C\c2cc([N+](=O)[O-])ccc2O)c(OC)c1OC
inactive: [6] 107 % of control | [7] 101 % of control | [8] 94 % of control

CC(=O)NC(CCC(C)(C)SCc1ccccc1)C(=O)O (stereo unspecified)
inactive: dose: 50.0 mg/kg/injection, schedule: Q01DX009 (ip), vehicle: saline with Tween-80 91 % of control | [1] 94 % of control | [2] 103 % of control

C#CCOCC(O)CCl (stereo unspecified)
inactive: dose: 100.0 mg/kg/injection, schedule: Q01DX009 (ip), vehicle: saline 90 % of control | dose: 200.0 mg/kg/injection, schedule: Q01DX009 (ip), vehicle: saline 105 % of control

C=CC[P+](Cc1cccc(C)c1)(c1ccccc1)c1ccccc1
inactive: dose: 0.78 mg/kg/injection, schedule: Q01DX009 (ip), vehicle: saline 99 % of control | dose: 1.56 mg/kg/injection, schedule: Q01DX009 (ip), vehicle: saline 111 % of control | dose: 3.13 mg/kg/injection, schedule: Q01DX009 (ip), vehicle: saline 104 % of control

[CH3][Ga]([CH3])[n]1cccn1
inactive: dose: 3.12 mg/kg/injection, schedule: Q01DX005 (ip), vehicle: Klucel (hydroxypropylcellulose) (HPC) 100 % of control | dose: 6.25 mg/kg/injection, schedule: Q01DX005 (ip), vehicle: Klucel (hydroxypropylcellulose) (HPC) 111 % of control

O=C1c2ccccc2C(=O)C1C(=Nc1ccc(F)cc1)c1ccccc1
inactive: [3] 103 % of control | [4] 103 % of control | [5] 99 % of control

Cc1ccc(S(=O)(=O)NN=C(c2ccccc2)c2ccccc2)cc1
inactive: dose: 12.5 mg/kg/injection, schedule: Q01DX009 (ip), vehicle: Klucel (hydroxypropylcellulose) (HPC) 98 % of control | dose: 25.0 mg/kg/injection, schedule: Q01DX009 (ip), vehicle: Klucel (hydroxypropylcellulose) (HPC) 93 % of control | dose: 50.0 mg/kg/injection, schedule: Q01DX009 (ip), vehicle: Klucel (hydroxypropylcellulose) (HPC) 87 % of control | dose: 100.0 mg/kg/injection, schedule: Q01DX009 (ip), vehicle: Klucel (hydroxypropylcellulose) (HPC) 88 % of control | dose: 200.0 mg/kg/injection, schedule: Q01DX009 (ip), vehicle: Klucel (hydroxypropylcellulose) (HPC) 86 % of control

CC(=O)c1ccccc1N=O
inactive: dose: 50.0 mg/kg/injection, schedule: Q01DX001 (ip), vehicle: other 102 % of control | dose: 100.0 mg/kg/injection, schedule: Q01DX001 (ip), vehicle: other 101 % of control and 107 % of control | dose: 200.0 mg/kg/injection, schedule: Q01DX001 (ip), vehicle: other 100 % of control | dose: 400.0 mg/kg/injection, schedule: Q01DX001 (ip), vehicle: other 102 % of control

N#CCCN(CCC#N)Cc1c(O)ccc2ccccc12
inactive: [6] 104 % of control | [7] 114 % of control | [8] 117 % of control

CSC(=S)N/N=C/c1ccccc1O
inactive: dose: 6.25 mg/kg/injection, schedule: Q01DX009 (ip), vehicle: saline with Tween-80 90 % of control | dose: 12.5 mg/kg/injection, schedule: Q01DX009 (ip), vehicle: saline with Tween-80 90 % of control | dose: 25.0 mg/kg/injection, schedule: Q01DX009 (ip), vehicle: saline with Tween-80 95 % of control
